Assay results from patent US20160237158A1, “Methods and Compositions for Targeting Tumor Microenvironment and for preventing Metastasis” (INSTITUT NATIONAL DE LA SANTÉ ET DA LA RECHERCHE MÉDICALE …, priority 2013, published 2016).

Legend:
STAT3 = STAT3 phosphorylation in fibroblasts (western blot); format: cell-based, human; conditions: hDF stimulated by TGFβ1
Description: (§1) For western blot analysis, antibodies against STAT3 (#9134), pY705-STAT3 (#9145), SMAD2 (#3122), pSer465/467-SMAD2 (#3108), pY1022/1023-JAK1 (#3331), MLC2 (#3672), pThr18/19-MLC2 (#3674) were purchased from Cell Signaling (Cell Signaling Technology, Beverly Mass.), α-tubulin from sigma (T4026, Sigma, Saint Louis, Mo.); JAK1 from Biolegend (#604402, Biolegend, San Diego, Calif.), GP-130 (#sc-655) and RhoA (#sc-418, Santa Cruz Biotechnology, Santa Cruz, Calif.), and alpha-smooth muscle actin (α-SMA) from Abcam (#Ab5694, Abcam, Cambridge, Mass.). For immunofluorescence staining, antibodies against α-SMA and fibronectin were purchased from Sigma (#A2547 and F3648 respectively, Sigma, Saint Louis, Mo.). Chemical inhibitors used: Pyridone 6 (#42009, Calbiochem, Los Angeles, Calif.) was used at […], SB431542 (#1614, Tocris bioscience, Ellisville, Mo.) at 10 μM, Y27632 (#1254, Tocris bioscience, Ellisville, Mo.) and Actinomycin D (#856258, Sigma, Saint Louis, USA) at 5 μg/ml.
For immunoblotting analysis, cells were lysed on ice in lysis buffer (25 mM Tris (pH 6.8), 2% Sodium dodecyl sulfate (SDS), 5% glycerol, 1% beta-mercaptoethanol, 0.01% bromophenol blue). Equal amounts of protein from each sample were loaded on sodium dodecyl sulfate-polyacrylamide gel electrophoresis, separated, and transferred onto nitrocellulose. The immunoblots were blocked by incubation in 5% bovine serum albumin, 10 mM Tris-HCl (ph7.5), 500 mM NaCl, 0.1% Tween 20 for 30 min at room temperature, probed with specific antibodies and then with secondary antibodies using common classical methods. Immunodetection was performed using chemiluminescent HRP subtrate (#WBKLS0500, Millipore, Billerica, Mass.).

SMAD2 = SMAD2 phosphorylation in fibroblasts (western blot); format: cell-based, human; conditions: hDF stimulated by TGFβ1
Description: as §1
For immunoblotting analysis, cells were lysed on ice in lysis buffer (25 mM Tris (pH 6.8), 2% Sodium dodecyl sulfate (SDS), 5% glycerol, 1% beta-mercaptoethanol, 0.01% bromophenol blue). Equal amounts of protein from each sample were loaded on sodium dodecyl sulfate-polyacrylamide gel electrophoresis, separated, and transferred onto nitrocellulose. […]

hDF [1] = experiment: qRT-PCR of IL6 family cytokine genes in TGFβ1-stimulated hDF; format: cell-based, human; conditions: one hour after stimulation, relative to control (Veh)
Description: RNA was isolated from total cell lysates using RNeasy Mini kit (#217004, Qiagen, Turnberry Ln Valencia, Calif.) according to the manufacturer's instructions. Reverse Transcription was performed using 500 ng cytoplasmic RNA using Superscript II reverse transcriptase (#18064-014, Invitrogen, Carlsbad, Calif.). Real time PCR was performed using Fast SYBR Green Master Mix ([…]; Applied Biosystems, Foster City, Calif.) in duplicates according to the recommendations of the manufacturer on an ABI Prism 7900HT sequence detection system (Applied Biosystems, Foster City, Calif.). Relative expression of the respective gene was determined after normalization to GAPDH and calculated with the following formula: relative expression level=2ddCT

hDF [2] = experiment: LIF ELISA of TGFβ1-stimulated hDF culture medium; format: cell-based, human; conditions: after TGFβ1 stimulation
Description: For the quantitative determination of LIF protein levels secreted to the media, we used the human LIF ELISA Kit (#ELH-LIF-001, Raybiotech Inc, Norcross, Ga.) following manufacturer's specifications.
(§2) Cancer Cells were grown to confluence, washed twice with PBS and then incubated in serum-free medium at 37° C. After 48 hours, conditioned medium was collected, centrifugated at 5000 g for 5 minutes to remove cell debris and the supernatant stored at −80° C. For immunobloting analysis, fibroblasts were stimulated with cancer cells conditioned media for 5 min, otherwise stated, and lysed as described in the immunbloting section. To analyse LIF secretion upon TGFβ-1 stimulation, fibroblasts were stimulated with 2 ng/ml TGF beta-1 for 1, 4, 24 or 48 h in serum-free medium and conditioned media was prepared as below for ELISA analysis.

fibroblasts [3] = experiment: Fibroblast contractility (collagen lattices) and pro-invasive activity (organotypic invasion) induced by human tumour cell conditioned media; format: cell-based; design: key to Fibroblasts contractile & pro-invasive phenotype: +: induction; −: no induction
Description: (§3) In this assay, hDF or CAFs were cultured during one week in serum-free medium (with either vehicle or cytokines) or CM before embedding in matrix gel. 5×10^5 fibroblasts were embedded in a 1 ml mixture of collagen I and Matrigel18. After the gel was set at 37° C. for 1 h, 5×10^5 SCC12 were plated on top of the gel in complete media. The next day, the gel was lifted onto individual collagen coated nylon discs resting on metal bridges and fed from underneath with daily changes of complete media (with either vehicle or inhibitors), allowing the epithelial layer to grow at an air-liquid interface.
(§4) After 5 days, cultures were fixed (4% paraformaldehyde+0.25% glutaraldehyde in PBS) and processed for haematoxylin and eosin (H&E) staining by standard methods. Invasion assay was measuring the total area of SCC cells and the area of non-invading SCC cells using imageJ software (http://rsbweb.nih.gov/ij/). The value of invasion index shown is the average 1−(non-invading area/total area) of at least ten fields from three or more independent experiments. Error bars are the standard deviation.
(§5) 2.5×10^4 Fibroblasts were embedded in 100 μl of matrix gel (the Collagen-Matrigel mixture used for organotypic invasion assays) and plated into wells of a 96 well plate^57. After 1 h at 37° C., the matrices were overlaid with 100 μl serum-free medium (with either vehicle, cytokines or inhibitors) or CM. Every 2 days, medium was changed and at day 6 the gels were photographed and the respective diameters of the well and gel were measured using ImageJ. The percentage contraction was calculated using the formula 100*(well diameter−gel diameter)/well diameter.
(§6) Neutralizing antibody against LIF (AB-250-NA, R&D, Minneapolis, Minn.), IL-6 R (AB-227-NA, R&D) or TGF beta-1,2,3 (MAB1835, R&D) were used at 10 μg/ml otherwise stated. Neutralizing antibody were incubated one hour with conditioned media before being used for matrix remodelling assay and fibroblasts stimulation to neutralize the biological activity of selected cytokines.
as §2

fibroblasts [4] = experiment: Fibroblast contractility and pro-invasive activity induced by murine breast carcinoma cell conditioned media; format: cell-based, mouse; design: key: +: induction; −: no induction; conditions: antibodies 10 μg·ml−1
Description: as §3, §4, §5, §6, §2

hDF and hCAF = experiment: Matrix remodelling (collagen gel contraction) assay; format: cell-based, human; conditions: hLu-CAF and hBr-CAF cells, FIG. 6A
Description: as §5

hDF [5] = experiment: Fibronectin expression in hDF; format: cell-based, human; conditions: TGFβ1 stimulation
Description: Cells were grown on glass coverslips, fixed in 3% paraformaldehyde for 20 min at room temperature, rinsed twice in PBS and in 50 mM NH4Cl for 10 min and permeabilized with 0.5% Triton X-100 for 5 min. Cells were next blocked in PBS containing 1% bovine serum albumin (BSA) for 30 min and incubated with anti-alpha smooth muscle actin (1/400), or anti-fibronectin (1/400) antibodies in blocking buffer overnight at 4° C. After two washes in PBS, cells were incubated in the presence of a secondary antibody conjugated to Alexa 488 (1/400) for 40 min, rinsed twice in PBS, stained with DAPI (2 ug/ml) for 5 min, rinsed in water and the coverslips mounted onto glass slides using mounting media.

[6] = A375M2 CM (h. melanoma), antibodies 10 μg·ml−1, αLIF (50)
[7] = A375P CM (h. melanoma), antibodies 10 μg·ml−1
[8] = A549 CM (h. lung carcinoma), antibodies 10 μg·ml−1
[9] = CAL27 CM (human OSCC), antibodies 10 μg·ml−1, αLIF (50)
[10] = CAL33 CM (human OSCC), antibodies 10 μg·ml−1
[11] = CAL33_LIF CM (h. engineered cell line), antibodies 10 μg·ml−1, αLIF (50)
[12] = CAL33_mock CM (h. engineered cell line), antibodies 10 μg·ml−1
[13] = CAL60 CM (human OSCC), antibodies 10 μg·ml−1
[14] = CAL166 CM (human OSCC), antibodies 10 μg·ml−1
[15] = Detroit562 CM (human OSCC), antibodies 10 μg·ml−1
[16] = LS174 CM (h. colon carcinoma), antibodies 10 μg·ml−1
[17] = MDA-MB-231 CM (breast carcinoma), antibodies 10 μg·ml−1
[18] = MDA-MB-468 CM (breast carcinoma), antibodies 10 μg·ml−1
[19] = Mel501 CM (h. melanoma), antibodies 10 μg·ml−1
[20] = Mel1205 CM (h. melanoma), antibodies 10 μg·ml−1
[21] = SCC12 CM (human OSCC), antibodies 10 μg·ml−1
[22] = SCC13 CM (human OSCC), antibodies 10 μg·ml−1
[23] = SCC25 CM (human OSCC), antibodies 10 μg·ml−1
[24] = Sbcl2 CM (h. melanoma), antibodies 10 μg·ml−1
[25] = WM35 CM (h. melanoma), antibodies 10 μg·ml−1
[26] = WM278 CM (h. melanoma), antibodies 10 μg·ml−1
[27] = WM793 CM (h. melanoma), antibodies 10 μg·ml−1

Compound	STAT3 phosphorylation induced by TGFβ1 (STAT3)	Fibroblasts contractile & pro-invasive phenotype (fibroblasts [3]; [6])	Fibroblasts contractile & pro-invasive phenotype (fibroblasts [3]; [7])	Fibroblasts contractile & pro-invasive phenotype (fibroblasts [3]; [8])	Fibroblasts contractile & pro-invasive phenotype (fibroblasts [3]; [9])	Fibroblasts contractile & pro-invasive phenotype (fibroblasts [3]; [10])	Fibroblasts contractile & pro-invasive phenotype (fibroblasts [3]; [11])	Fibroblasts contractile & pro-invasive phenotype (fibroblasts [3]; [12])	Fibroblasts contractile & pro-invasive phenotype (fibroblasts [3]; [13])	Fibroblasts contractile & pro-invasive phenotype (fibroblasts [3]; [14])	Fibroblasts contractile & pro-invasive phenotype (fibroblasts [3]; [15])	Fibroblasts contractile & pro-invasive phenotype (fibroblasts [3]; [16])	Fibroblasts contractile & pro-invasive phenotype (fibroblasts [3]; [17])	Fibroblasts contractile & pro-invasive phenotype (fibroblasts [3]; [18])	Fibroblasts contractile & pro-invasive phenotype (fibroblasts [3]; [19])	Fibroblasts contractile & pro-invasive phenotype (fibroblasts [3]; [20])	Fibroblasts contractile & pro-invasive phenotype (fibroblasts [3]; [21])	Fibroblasts contractile & pro-invasive phenotype (fibroblasts [3]; [22])	Fibroblasts contractile & pro-invasive phenotype (fibroblasts [3]; [23])	Fibroblasts contractile & pro-invasive phenotype (fibroblasts [3]; [24])	also measured
siRNA GP130-IL6ST: siRNA targeting GP130-IL6ST (SEQ ID NO: 5 and 6), purchased from Dharmacon (chain 1 CUAAUUACAUUGUCUGGAA; chain 2 CUAAGGAGCAAUAUACUAU; listed as RNA, chemistry not given here)	hampered																				SMAD2 activation by TGFβ1 (SMAD2): without affecting
TGFβ1: TGF beta-1 cytokine (#100-21, Peprotech), used at 2 ng·ml-1																					increase of IL6 mRNA steady state levels (hDF [1]): 5 fold; increase of LIF mRNA steady state levels (hDF [1]): 100 fold; LIF in hDF cell culture medium, 24 h peak (hDF [2]): 200 pg/mL
CC(C)(C)c1nc2c3cc[nH]c(=O)c3c3cc(F)ccc3c2[nH]1 [P6, Pyridone 6]	blocked	−	−	−	−	−	−	−	−	−	−	−	−	−	−	−	−	−	−	−	Fibroblasts contractile & pro-invasive phenotype (fibroblasts [3]; [25]): −; Fibroblasts contractile & pro-invasive phenotype (fibroblasts [3]; [26]): −; Fibroblasts contractile & pro-invasive phenotype (fibroblasts [3]; [27]): −; Fibroblasts contractile & pro-invasive phenotype (fibroblasts [3]; hPK CM, antibodies 10 μg·ml−1): −; Fibroblasts contractile & pro-invasive phenotype (fibroblasts [4]; 4T1 CM (murine breast carcinoma)): −; Fibroblasts contractile & pro-invasive phenotype (fibroblasts [4]; 4T07 CM (murine breast carcinoma)): −; Fibroblasts contractile & pro-invasive phenotype (fibroblasts [4]; 67NR CM (murine breast carcinoma)): −; Fibroblasts contractile & pro-invasive phenotype (fibroblasts [4]; 410.4 CM (murine breast carcinoma)): −; pro-invasive potential (matrix remodelling) of hCAF (hDF and hCAF): required JAK signalling to sustain their pro-invasive potential; fibronectin expression pattern (hDF [5]): slightly reduced
NC(=O)c1ccc(-c2nc(-c3ccc4c(c3)OCO4)c(-c3ccccn3)[nH]2)cc1 [SB431542]		+	+	+	+	−	+	−	+	+	+	+	+	+	−	+	+	+	+	−	Fibroblasts contractile & pro-invasive phenotype (fibroblasts [3]; [25]): +; Fibroblasts contractile & pro-invasive phenotype (fibroblasts [3]; [26]): +; Fibroblasts contractile & pro-invasive phenotype (fibroblasts [3]; [27]): +; Fibroblasts contractile & pro-invasive phenotype (fibroblasts [3]; hPK CM, antibodies 10 μg·ml−1): −
C[C@@H](N)[C@H]1CC[C@H](C(=O)Nc2ccncc2)CC1 [Y27632]																					pro-invasive fibroblast conversion induced by CAL33-LIF CM (fibroblasts [3]; CAL33-LIF CM): blocked; action of SCC12 and SCC13 CM (pro-invasive fibroblast activation) (fibroblasts [3]; SCC12 and SCC13 CM): completely abrogated
